The nature of data set [1]: Apparent permeability in Caco-2 monolayers. It is filed as in vitro ADME. To be noted: human. (In general: Caco-2 monolayers are a common model of the intestinal barrier.)
Data set [2] concerns Caco‐2 monolayers. The data set can be described thus: Apparent permeability in Caco-2 monolayers. It is filed as in vitro ADME. To be noted: Caco‐2, 10 μM, 2 h.
The target in data set [3] is T1, P-gp (Homo sapiens, UniProt P08183).
T1 construct: endogenous in cells; host or cells: Caco-2
T1 sequence (P08183 whole entry): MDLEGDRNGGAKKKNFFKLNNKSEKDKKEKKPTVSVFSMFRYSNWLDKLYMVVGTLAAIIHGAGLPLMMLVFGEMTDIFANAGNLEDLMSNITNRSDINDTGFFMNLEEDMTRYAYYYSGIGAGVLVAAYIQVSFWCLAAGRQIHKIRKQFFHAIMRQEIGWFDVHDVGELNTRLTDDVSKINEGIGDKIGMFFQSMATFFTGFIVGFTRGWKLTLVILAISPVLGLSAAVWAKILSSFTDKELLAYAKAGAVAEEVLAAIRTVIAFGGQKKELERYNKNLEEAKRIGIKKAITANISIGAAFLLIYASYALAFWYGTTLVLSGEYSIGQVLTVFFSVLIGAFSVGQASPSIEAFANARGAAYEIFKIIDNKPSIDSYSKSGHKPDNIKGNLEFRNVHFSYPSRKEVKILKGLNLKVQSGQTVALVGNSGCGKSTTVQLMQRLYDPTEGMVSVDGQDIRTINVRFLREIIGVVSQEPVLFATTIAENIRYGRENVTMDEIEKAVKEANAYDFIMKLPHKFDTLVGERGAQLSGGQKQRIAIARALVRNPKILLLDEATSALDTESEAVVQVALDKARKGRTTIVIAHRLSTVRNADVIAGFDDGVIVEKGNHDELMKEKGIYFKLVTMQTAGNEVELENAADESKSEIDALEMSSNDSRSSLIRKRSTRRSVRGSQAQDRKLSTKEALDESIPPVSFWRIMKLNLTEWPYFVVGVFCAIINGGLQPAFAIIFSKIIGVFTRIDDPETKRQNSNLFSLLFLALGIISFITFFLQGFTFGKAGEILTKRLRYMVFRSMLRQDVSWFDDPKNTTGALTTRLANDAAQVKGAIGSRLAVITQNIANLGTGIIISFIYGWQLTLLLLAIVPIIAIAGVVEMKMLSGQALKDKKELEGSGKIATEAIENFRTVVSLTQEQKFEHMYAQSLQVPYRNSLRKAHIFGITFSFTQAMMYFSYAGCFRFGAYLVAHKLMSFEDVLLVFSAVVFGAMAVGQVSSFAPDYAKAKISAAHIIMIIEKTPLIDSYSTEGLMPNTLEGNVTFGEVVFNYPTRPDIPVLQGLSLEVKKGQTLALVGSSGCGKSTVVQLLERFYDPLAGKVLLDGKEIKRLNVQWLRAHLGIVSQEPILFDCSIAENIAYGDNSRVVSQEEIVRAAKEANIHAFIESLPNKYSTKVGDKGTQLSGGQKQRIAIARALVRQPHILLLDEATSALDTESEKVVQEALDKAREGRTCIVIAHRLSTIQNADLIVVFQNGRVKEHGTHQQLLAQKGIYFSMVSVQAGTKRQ
The data set can be described thus: P-gp substrate assessment in Caco-2 monolayers with verapamil. It counts as in vitro ADME. The conditions noted are these: Caco-2, with verapamil (concentration not stated), read-out: Efflux ratio P app,BL→AP/AP→BL, with inhibitor.

The subject of data set [4] is T2, P-gp.
T2 construct: endogenous in cells; host or cells: Caco-2
The data set is described as above. To be noted: human, Caco-2, with verapamil (concentration not stated). It counts as in vitro ADME.

Data set [5] concerns Caco-2. The conditions noted are these: ref SimCYP library version 19, cited from earlier work.
The subject of data set [6] is MDCK II. The conditions noted are these: fluvoxamine file with reference compounds; ref SimCYP library version 19; cited from earlier work.
On the set-up of data set [7]: method as in SimCYP library version 19. To be noted: ref SimCYP library version 19; cited from earlier work.
Data set [8] relates to CYP3A4. More on the design: method as in SimCYP library version 19. The conditions noted are these: ref SimCYP library version 19; cited from earlier work.
For data set [9] the following is noted: model input; ref SimCYP library version 19; cited from earlier work.
For data set [10] the following is noted: ref SimCYP library version 19, cited from earlier work.
In data set [11] the test system is CYP2C8. More on the design: method as in SimCYP library version 19. The conditions noted are these: ref SimCYP library version 19; cited from earlier work.
In data set [12] the test system is CYP1A2. Also on record: method as in SimCYP library version 19. The conditions noted are these: ref SimCYP library version 19; cited from earlier work.
For data set [13], the system named is CYP2B6. Also on record: method as in SimCYP library version 19. To be noted: ref SimCYP library version 19, cited from earlier work.
In data set [14] the test system is CYP2C8. Also on record: method as in SimCYP library version 19. The conditions noted are these: ref SimCYP library version 19, cited from earlier work.
The conditions of data set [15]: model input; ref SimCYP library version 19; cited from earlier work. The source holds these as a separate data set.
The conditions of data set [16]: model input; ref SimCYP library version 19; cited from earlier work. The source holds these as a separate data set.
Data set [17] has as its system CYP1A2. The conditions noted are these: read-out: CYP1A2 Ki; competitive inhibition; ref SimCYP library version 19; cited from earlier work.
In data set [18] the test system is CYP2C9. To be noted: read-out: CYP2C9 Ki; competitive inhibition; ref SimCYP library version 19; cited from earlier work.
The subject of data set [19] is CYP2C19. The conditions noted are these: read-out: CYP2C19 Ki; competitive inhibition; ref SimCYP library version 19; cited from earlier work.
The test system of data set [20] is CYP2D6. The conditions noted are these: read-out: CYP2D6 Ki; competitive inhibition; ref SimCYP library version 19; cited from earlier work.
Data set [21] deals with CYP3A4. The conditions noted are these: cited from earlier work.
The nature of data set [22]: Clinical pharmacokinetic studies of PB-201. It counts as in vivo. The conditions noted are these: humans.
The subject of data set [23] is CYP3A4. Description: Clinical DDI study of PB-201 with ketoconazole (NCT01468714). It counts as in vivo, human. The conditions noted are these: inferred from clinical DDI study with strong CYP3A inhibitor.
A short description of data set [24]: Allometric scaling of clearance. To be noted: rats, dogs, and monkeys; clearance (intravenous), body weight, plasma unbound fraction.
The conditions of data set [25]: cited from earlier work.
On the set-up of data set [26]: method as in earlier work. To be noted: bile duct‐cannulated rats; cited from earlier work.
Data set [27] concerns OATP1B1. More on the design: method as in unpublished. To be noted: ref unpublished; cited from earlier work.
The test system of data set [28] is OATP1B3. Also on record: method as in unpublished. To be noted: ref unpublished; cited from earlier work.
For data set [29] the following is noted: cited from earlier work. This is another data set of the same source.
Data set [30] in a line: physchem.
The subject of data set [31] is CYP3A4. The conditions noted are these: ref NCT01468714, cited from earlier work.
Data set [32] in a line: Physicochemical properties.
The mark [33] stands for this setting: pH 7.4: pH 7.4, Passive&Active, erythromycin file with reference compounds.

In brackets after ≈: the same amount, converted by molar mass. Several values for one entry are separate records, joined by “and”; a condition that tells them apart may be missing. Equal values may be shown once. Read-outs that look alike come from different tables or passages of the source.

The text below walks through data of article PMC10349193 (CPT: Pharmacometrics & Systems Pharmacology, 2023).

As to `CC(C)NCC(O)COc1cccc2ccccc12` (centres unmarked) [Propranolol], in data set [1] (Caco-2, Apical pH : Basolateral pH 7.4 : 7.4, source Measured, read-out: Caco-2 permeability (model input)), the Papp at 2 h worked out at 29.4 ×10⁻⁶ cm/s. In addition, the Papp B→A at 2 h, 10 μM in data set [1] (Caco‐2, 10 μM, 2 h, read-out: P app,BL→AP, without inhibitor) is 23.1 ×10⁻⁶ cm/s; in data set [4] (read-out: P app,BL→AP, with inhibitor), 21.9 ×10⁻⁶ cm/s. Moreover, the efflux ratio at 2 h, 10 μM in [1] (Caco‐2, 10 μM, read-out: Efflux ratio P app,BL→AP/AP→BL, without inhibitor) amounted to 0.785; in data set [3], 0.382. Besides, the “P app,AP→BL, without inhibitor” value in [2] is 29.4 10^−6 cm/s. Further, in data set [4] (read-out: P app,AP→BL, with inhibitor), the Papp A→B at 2 h, 10 μM turned out to be 57.4 ×10⁻⁶ cm/s. Besides, the “Reference compound Papp” value in data set [5] (Caco-2 pH 6.5: pH 7.4, references of fluconazole file, unit not given) is 27.5. The “Caco-2 Papp” value is 21.15 10^-6 cm/s in [5] (pH 6.5: pH 7.4, Passive, rifampicin file with reference compound) and 147 10^-6 cm/s in data set [5] (setting [33]). In addition, the “MDCK II Papp” value in data set [6] is recorded as 40.3 10^-6 cm/s.
Turning to `CC[C@H]1OC(=O)[C@H](C)[C@@H](O[C@H]2C[C@@](C)(OC)[C@@H](O)[C@H](C)O2)[C@H](C)[C@@H](O[C@@H]2O[C@H](C)C[C@H](N(C)C)[C@H]2O)[C@](C)(O)C[C@@H](C)C(=O)[C@H](C)[C@@H](O)[C@]1(C)O` [Erythromycin], the CLR in data set [7] is 3.13 L/h. Also, the “CYP3A4 Kapp” value in data set [8] is 23.2 µM. For the same compound, the “Fraction unbound in plasma” value in data set [9] is 0.31. Further, the “Caco-2 Papp” value in [5] (setting [33]) was 1.7 10^-6 cm/s. For the same compound, the Vss in data set [10] (minimal PBPK model) is listed as 0.75/30 L/kg. In addition, in data set [10] (single adjusting compartment), the “Volume [Vsac]” value was 1e-05 L/kg, the kin was 0 h⁻¹ and the kout is 0 h⁻¹.
As usually defined, the Log P is the decadic logarithm of the partition coefficient of the neutral form, usually between octanol and water. For the compound `CO[C@H]1/C=C/O[C@@]2(C)Oc3c(C)c(O)c4c(O)c(c(/C=N/N5CCN(C)CC5)c(O)c4c3C2=O)NC(=O)/C(C)=C\C=C\[C@H](C)[C@H](O)[C@@H](C)[C@@H](O)[C@@H](C)[C@H](OC(C)=O)[C@@H]1C` [Rifampicin], the CLR in data set [7] is 1.26 L/h. Also, in data set [11], the “fumic (CYP2C8 inhibition)” value was 1. In [12], the “fuinc (CYP1A2 induction)” value is listed as 1. Moreover, the EC50 in data set [13] (induction, read-out: CYP2B6 IndC50) is 70 nM. Besides, the “fuinc (CYP2B6 induction)” value in [13] was 1. In data set [14] (induction, read-out: CYP2C8 IndC50), the EC50 is 300 nM. Further, the “fuinc (CYP2C8 induction)” value in data set [14] is 1. In [9], the “Fraction unbound in plasma” value is 0.116. Besides, in [15], the “Log P” value was 4.01, the “pKa 1” value is on record as 1.7 and the “pKa 2” value is 7.9. In data set [16], the Lag time is listed as 0/30 h, the QGut is on record as 9.42/30 and the fuGut is listed as 0.14. In addition, in [10] (single adjusting compartment), the kin was 0 h⁻¹ and the kout was 0 h⁻¹.
As usually defined, the Ki is the equilibrium dissociation constant of an inhibitor or competing ligand from its target. For the compound `COCCCC/C(=N\OCCN)c1ccc(C(F)(F)F)cc1` [Fluvoxamine], in data set [15], the “pKa 1” value was 8.7. Moreover, the Ki is 2 nM in data set [17]; 126 nM in data set [18]; 6 nM in [19]; 189 nM in [20]; […] in data set [21].
The solubility is how much of the substance goes into solution per volume. Broadly, the logP is the decadic logarithm of the partition coefficient of the neutral form, usually between octanol and water. The pKa is the pH at which an ionisable group is half protonated. High values mean a weaker acid or stronger base, low ones a stronger acid or weaker base. In the case of `Cc1cnc(NC(=O)c2cc(Oc3cnc(C(=O)N(C)C)nc3)c3cc(C)oc3c2)cn1` [PB‐201, N,N‐dimethyl‐5‐(2‐methyl‐6‐((5‐methylpyrazin‐2‐yl)‐carbamoyl) benzofuran‐4‐yloxy)pyrimidine‐2‐carboxamide], in data set [22] (human, urine, oral, from a clinical trial, source Measured, read-out: Typical renal clearance (converted)), the CL renal was 1.65 mL/min. Moreover, the Observed distribution volume in data set [22] (assuming bioavailability 68% and body weight ~76.89 kg) stood at 1.983 L/kg. Moreover, the “f m of CYP2C9 in vivo” value in data set [23] is “less than 25%”. The “Allometric exponent (b)” value in [24] was “about 0.74”. Further, the “Food effect on systemic exposure” value in [25] (fed (NCT01513928) vs fasted (NCT01272804), same dose, ref NCT01513928) is recorded as “significantly increase”. In addition, the “Volume of distribution based on the terminal phase” value in [25] (humans, 100 mg, ref NCT01044537) is ~ 254.4 L. The “Time (median) to reach maximum plasma concentration” value in [25] (humans, after multiple doses, ref NCT01272804) was 2 to 3 h. Also, the “Unchanged drug in the urine” value in data set [25] (humans, ref NCT01272804) is listed as below 1%. Moreover, in data set [26], the “Contribution of biliary excretion to elimination” value is “about 2.3%”. Besides, the OATP1B1 substrate assessment result in data set [27] was “not a specific substrate”. Further, the OATP1B3 substrate assessment result in [28] is recorded as “not a specific substrate”. Also, the “Overall total incidence of hypoglycemia” value in data set [29] (clinical studies, exposure‐response relationship, ref unpublished) was “about 3%”. In addition, the “Safety and tolerability in clinical studies” value in data set [29] (dose range of 3–640 mg) was “safe and tolerable”. Also, the solubility in [30] was around 3 µg/mL (≈ 6.94 µM). In addition, the “Increase of PB‐201 systemic exposure on co‐administration with ketoconazole” value in [31] (clinical DDI study, strong CYP3A4 inhibitor) is on record as “about 26.4%”. Further, the “Contribution (f m) of CYP3A4 to PB‐201 elimination in vivo” value in data set [31] (humans, fasted state, from clinical DDI study) is ~ 26.4% and 26.4%. Also, in [32], the logP amounted to 1.38 and the pKa is 10.4.
